PMC12040169 (PLOS Biology, 2025)

Assay: in vitro
Settings: human, hela cells, % viability

Cc1ccc(OCC(=O)Nc2ncc(Cc3ccc(F)cc3)s2)cc1 [CBK293930]
viability at 28.5 h, 10 µM: 82.2%

COc1ccccc1N1CCN(c2cc(N3CCNCC3)ccc2[N+](=O)[O-])CC1 [CBK293931]
viability at 28.5 h, 10 µM: 85.1%

Cc1ccc(S(=O)(=O)n2c(SCc3ccccc3)nc3ccccc32)cc1 [CBK293933]
viability at 28.5 h, 10 µM: 104%

Cc1ccc(OCC(=O)N2N=C(CC(C)C)CC2(O)C(F)(F)F)cc1C (stereo not drawn) [CBK293935]
viability at 28.5 h, 10 µM: 91.5%

CC1(C)CC(=O)c2cc(C(N)=O)c(=O)n(-c3ccc(Cl)cc3)c2C1 [CBK293936]
viability at 28.5 h, 10 µM: 88.8%

CCCCC(=O)NC(c1ccc(Cl)cc1)c1cc([N+](=O)[O-])c2cccnc2c1O (stereo not drawn) [CBK293938]
viability at 28.5 h, 10 µM: 90.1%

COc1ccc(C(NC(=O)CCc2ccccc2)c2ccc3cccnc3c2O)cc1 (stereo not drawn) [CBK293942]
viability at 28.5 h, 10 µM: 86%

COc1ccc(NC(=O)N2CCCCC2c2cccnc2)cc1 (stereo not drawn) [CBK293947]
viability at 28.5 h, 10 µM: 102%

CC(=O)Oc1ccc2c(=O)c(C3NC(C(=O)O)Cc4c3[nH]c3ccccc43)coc2c1 (stereo not drawn) [CBK293948]
viability at 28.5 h, 10 µM: 120%

COc1ccc(CNc2cnc3ccccc3c2)c(O)c1 [CBK293951]
viability at 28.5 h, 10 µM: 87.5%

NC(=O)C1CCN(C(=O)CSc2nc3ccccc3s2)CC1 [CBK293953]
viability at 28.5 h, 10 µM: 95.2%

COc1ccccc1NC(=O)C1=C(C)Nc2nnnn2C1c1ccc(OC)c([N+](=O)[O-])c1 (stereo not drawn) [CBK293954]
viability at 28.5 h, 10 µM: 83.8%

CCOC(=O)c1c(N)sc2c1CC(c1ccccc1)SC2c1ccccc1 (stereo not drawn) [CBK293955]
viability at 28.5 h, 10 µM: 87.5%

COc1ccc(-c2cc(C(=O)NCc3cccnc3)c3cc(Br)ccc3n2)cc1 [CBK293958]
viability at 28.5 h, 10 µM: 86.1%

Cc1ccc(-c2cc(C(=O)NCc3cnn(C)c3)c3cc(Br)ccc3n2)cc1 [CBK293959]
viability at 28.5 h, 10 µM: 89.1%

CCC1SC2=NC(C)=C(C(=O)OCc3ccccc3)C(c3ccccc3)N2C1=O (stereo not drawn) [CBK293960]
viability at 28.5 h, 10 µM: 82.7%

CCc1ccc(CN(C(=O)c2cc(OC)c(OC)c(OC)c2)C2CCS(=O)(=O)C2)cc1 (stereo not drawn) [CBK293961]
viability at 28.5 h, 10 µM: 98.4%

O=C(CC1(O)C(=O)N(Cc2ccccc2)c2ccccc21)c1cc2ccccc2oc1=O (stereo not drawn) [CBK293963]
viability at 28.5 h, 10 µM: 106%

CC1=CC(C)C(C(=O)O)C(C(=O)NCc2cccnc2)C1 (stereo not drawn) [CBK293964]
viability at 28.5 h, 10 µM: 113%

COc1ccc(S(=O)(=O)N2Cc3ccccc3CC2C(=O)Nc2ccc(O)cc2)cc1OC (stereo not drawn) [CBK293967]
viability at 28.5 h, 10 µM: 90.9%

O=C1CC(C(=O)Nc2cccc(C(=O)O)c2)C(c2ccccc2)O1 (stereo not drawn) [CBK293968]
viability at 28.5 h, 10 µM: 87.1%

CC(C)(C)c1ccc(OCC(O)Cn2c(CO)nc3ccccc32)cc1 (stereo not drawn) [CBK293973]
viability at 28.5 h, 10 µM: 81.7%

CC(C)CC(Nc1ncnc2c1oc1ccccc12)C(=O)O (stereo not drawn) [CBK293974]
viability at 28.5 h, 10 µM: 100%

O=C(CC1(O)C(=O)N(CCc2ccccc2)c2ccc(Br)cc21)c1ccncc1 (stereo not drawn) [CBK293976]
viability at 28.5 h, 10 µM: 90.2%

O=C(CSc1nc2ccccc2nc1N1CCCC1)N1CCN(c2ccccc2)CC1 [CBK293977]
viability at 28.5 h, 10 µM: 86.5%

COc1cc(C2CC(=O)Nc3nc(N)[nH]c(=O)c32)ccc1OCc1ccc(F)cc1 (stereo not drawn) [CBK293980]
viability at 28.5 h, 10 µM: 84.8%

O=C(Nc1ccc(Oc2ccccc2)cc1)c1cc([N+](=O)[O-])cc2cn[nH]c12 [CBK293985]
viability at 28.5 h, 10 µM: 82.5%

Cc1nc2ccc(NC(=O)CC(c3ccccc3)c3ccccc3)cc2s1 [CBK293988]
viability at 28.5 h, 10 µM: 90%

CC(C)Sc1nnc(N2C(N)=C(C#N)C(c3cccs3)C3=C2CCCC3=O)s1 (stereo not drawn) [CBK293989]
viability at 28.5 h, 10 µM: 82.8%

Cc1nc([N+](=O)[O-])c(C(=O)OCc2ccccc2C#N)n1C [CBK293991]
viability at 28.5 h, 10 µM: 82.1%

COc1ccc(N2C(N)=C(C#N)C(c3cccc(OC(C)C)c3)C3=C2CCS3(=O)=O)cc1 (stereo not drawn) [CBK293992]
viability at 28.5 h, 10 µM: 85.6%

COC(=O)C1=C(C)OC(n2cccc2)=C(C#N)C1c1cc(OC)c(O)c(OC)c1 (stereo not drawn) [CBK293994]
viability at 28.5 h, 10 µM: 101%

CCOC(=O)c1noc2nc(C)n(Cc3nc(-c4ccccc4)oc3C)c(=O)c12 [CBK294400]
viability at 28.5 h, 10 µM: 89.6%

CC1CCc2nc3ncn(CC(=O)NC4CC4)c(=O)c3cc2C1 (stereo not drawn) [CBK294401]
viability at 28.5 h, 10 µM: 88.3%

CCOC(=O)Cn1cnc2nc3c(cc2c1=O)CC(C)CC3 (stereo not drawn) [CBK294402]
viability at 28.5 h, 10 µM: 90.6%

Cc1ccc(COc2cc(C(=O)NCc3ccccn3)c3ccccc3n2)cc1 [CBK294403]
viability at 28.5 h, 10 µM: 112%

Cc1csc(NC(=O)CSc2nnc3[nH]c(=O)cc(C)n23)n1 [CBK294413]
viability at 28.5 h, 10 µM: 81.7%

Cc1csc(NC(=O)c2cccn(Cc3cccc([N+](=O)[O-])c3)c2=O)n1 [CBK294414]
viability at 28.5 h, 10 µM: 87.4%

O=C(C1COc2ccccc2O1)N(Cc1cccnc1)c1nc2c(F)cccc2s1 (stereo not drawn) [CBK294421]
viability at 28.5 h, 10 µM: 91%
